Reference: patent US5169852A, “Method of suppressing appetite by administration of tetrahydro-beta-carboline derivatives” (priority 1990, dated 1992)
“Also recorded” adds a separate entry of the source. Structures can show the parent of a compound that is named as a salt. Where two headings read alike, the source gives them in different places.

Assays:
[1] = Partial appetite suppression: food intake over one hour vs dose (FIG. 5); format: in vivo; conditions: rat
Experimental: Adult male rats weighing between 250 and 300 g were acclimated to laboratory conditions for a period of 4-5 days, during which they were allowed unrestricted access to food (Ralston-Purina #5001M) and water. All animals were housed in individual cages. The animal facility was maintained on a 12:12 hr light-dark schedule at 22° C.
Fasted animals were sorted into groups of 10-12 each by weight and baseline food intake. Each was then given saline containing 0-32 mg/Kg of a compound of the invention (or THBC) by intraperitoneal injection. After 20 minutes, animals were allowed access to food and water. Cumulative food intake was measured at 1 hour post-injection.
Reduction in food intake over one hour was measured against the dose per unit body weight for THBC and compound 14. The results are shown in FIG. 5A, which compares compound 14 with THBC.

[2] = Reduction of food intake in fasted rats, intraperitoneal (IC50 from dose-response curve); format: in vivo, rat; conditions: ip
Excerpt: The measured food intake was plotted as a function of the natural logarithm of the drug concentration (ln(Dose)) given to the animal for each of the compounds listed above. A dose response curve of the functional form: Intake =α+(1-α)/[1+exp(β- ln(Dose))]was fit to each of the data sets using the NONLIN feature of the Systat™ statistical analysis software package for the Macintosh™ (Systat, Evanston, Il).

benzodiazepine receptors = conditions: Skolnick; Robertson; cited from earlier work
[3] = systemic, rodents; cited from earlier work
[4] = system: brain imipramine binding sites; conditions: cited from earlier work
[5] = system: 5-HT oxidative deamination; conditions: cited from earlier work
[6] = system: brain tryptamine binding sites; conditions: cited from earlier work
[7] = system: brain 5-hydroxytryptamine (5-HT) binding sites; conditions: cited from earlier work
5-HT uptake = conditions: brain synaptosomes; cited from earlier work
5 HT efflux = conditions: brain slices; cited from earlier work
[8] = rats; cited from earlier work
[9] = cited from earlier work
[10] = system: brain spiperone binding sites; conditions: cited from earlier work
[11] = cited from earlier work; remark: listed apart in the source
[12] = parenteral, rats; cited from earlier work
[13] = cited from earlier work; for effect on feeding (hyperphagic / anorectic): S. Cooper
[14] = human, in vivo; cited from earlier work
[15] = rat, intraperitoneal, 1 hour food intake, Table 2, read-out: Activity LOG (IC50), reduction of food intake (converted)
[16] = rat, intraperitoneal, 1 hour food intake, Table 3, read-out: Log (1/IC50) Measured (converted)
[17] = Rattus norvegicus, 1 h, read-out: Activity LOG (IC50), reduction of food intake
[18] = Rattus norvegicus, 1 h, read-out: Log (1/IC50) Measured

With O=C(O)C1Cc2c([nH]c3ccccc23)CN1 (racemic) [Compound 14, (±) 3-carboxyl-1,2,3,4-tetrahydro-β-carboline] the “feeding depression / dose-response behavior” value [1] was “will not depress feeding behavior over a comparatively large feeding range; also recorded: moderate feeding depression over a broad dosage range”, the ED50 [2, 15] was 0.0331 µmol/kg and the ED50 [2, 16] was 30.2 µmol/kg.

For COC(=O)C1Cc2c([nH]c3ccccc23)CN1 (stereo not drawn) [3-carbomethoxy-1,2,3,4-tetrahydro-β-carboline], the “binding affinity to benzodiazepine receptors” value (benzodiazepine receptors) is listed as “very low affinity”.

In the case of c1ccc2c3c([nH]c2c1)CNCC3 [Compound 1, 1,2,3,4-tetrahydro-β-carboline], the plasma corticosterone [3] is given as “elevated”, the plasma prolactin levels [3] is given as “dose-dependent elevation” and the “serum luteinizing hormone levels” value [3] is given as “decreased”. The “feeding depression / dose-response behavior” value [1] was “little feeding depression at low dosage, but relatively complete feeding depression at higher dosage”, the “competition for brain imipramine binding sites” value [4] was “low affinity” and the “inhibition of 5-HT oxidative deamination” value [5] was “weakly inhibits”. The ED50 [2, 17] was 0.0145 µmol/kg, the ED50 [2, 18] was 69.2 µmol/kg and the “competition for brain tryptamine binding sites” value [6] was “low affinity”. The “competition for brain 5-HT binding sites” value [7] was “low affinity”, the “inhibition of 5-HT uptake” value (5-HT uptake) was “weakly inhibits” and the “depolarization-induced 5 HT efflux” value (5 HT efflux) was “enhances”. The “behavioral effects, intraventricular” value [8] was “reduce motor activity, induce apparent anxiety, and increase voluntary ethanol consumption”, the deaths ([9]; 49 mg/Kg/day or greater) was 6 out of the 24 and the “treatment day by which food consumption returns to normal (tolerance)” value ([9]; daily oral, in excess of 49 mg/Kg) was “twelfth”. For the same compound, the “appetite, smaller daily doses” value ([9]; daily oral, less than 30 mg/Kg) was “do not significantly alter appetite”, the “food intake, daily oral administration” value ([9]; in excess of 49 mg/Kg daily, after two consecutive days) was “significant reductions in food intake” and the “competition for brain spiperone binding sites” value [10] was “low affinity”. The “behavioral syndrome at high doses” value ([11]; high doses) was “hyperactivity, forepaw treating, body weaving, and circling”, the behavioral effects ([11]; parenteral) was “suppresses locomotion, exploratory activity, and conflict behavior, impairs performance on operantly conditioned learning and memory tasks, reduces seizure susceptibility, prolongs barbiturate sedation, and antagonizes specific drug induced stereotypic behavior” and the “dose eliciting significant hypothermia” value [12] was ≥ 6.25 mg/kg.

Work on COc1ccc2[nH]c3c(c2c1)CCNC3 [Compound 2, 6-methoxy-1,2,3,4-tetrahydro-β-carboline] yielded an ED50 [2, 17] of 0.0162 µmol/kg and an ED50 [2, 18] of 61.7 µmol/kg.

Fc1ccc2[nH]c3c(c2c1)CCNC3 [Compound 4, 6-fluoro-1,2,3,4 tetrahydro-β-carboline hydrochloride] gave an ED50 [2, 17] of 0.0257 µmol/kg and an ED50 [2, 18] of 38.9 µmol/kg.

Fc1ccc2c3c([nH]c2c1)CNCC3 [Compound 5, 7-fluoro-1,2,3,4-tetrahydro-β-carboline hydrochloride] gave an ED50 [2, 17] of 0.0214 µmol/kg and an ED50 [2, 18] of 46.8 µmol/kg.

CC1NCCc2c1[nH]c1ccccc21 (stereo not shown) [Compound 7] gave an ED50 [2, 18] of 100 µmol/kg.

Clc1ccc2[nH]c3c(c2c1)CCNC3 [Compound 8, 6-chloro-1,2,3,4-tetrahydro-β-carboline hydrochloride] showed an ED50 [2, 17] of 0.0347 µmol/kg and an ED50 [2, 18] of 28.8 µmol/kg.

Work on Cc1cccc2c3c([nH]c12)CNCC3 [Compound 10, 8-methyl-1,2,3,4-tetrahydro-β-carboline hydrochloride] yielded an ED50 [2, 15] of 0.0162 µmol/kg and an ED50 [2, 16] of 61.7 µmol/kg.

For Cc1ccc2[nH]c3c(c2c1)CCNC3 [Compound 12], the ED50 [2, 16] was 30.9 µmol/kg.

CCC1Cc2c([nH]c3ccccc23)CN1 (stereo not shown) [Compound 13] showed an ED50 [2, 16] of 77.6 µmol/kg.

Compound O=C(O)C1Cc2c([nH]c3ccc(O)cc23)CN1 (stereo not shown) [Compound 15] has an ED50 [2, 16] of 91.2 µmol/kg.

With CC(=O)N1CCc2c([nH]c3ccccc23)C1 [Compound 16, 2-acetyl-1,2,3,4-tetrahydro-β-carboline] the “feeding depression / dose-response behavior” value [1] was “The same behavior was observed”, the ED50 [2, 15] was 0.0162 µmol/kg and the ED50 [2, 16] was 61.7 µmol/kg.

Cc1cccc2[nH]c3c(c12)CCNC3 [Compound 17] showed an ED50 [2, 16] of 30.2 µmol/kg.

O=Cn1c2c(c3ccccc31)CCNC2 [Compound 18] gave an ED50 [2, 16] of 91.2 µmol/kg.

Work on c1ccc(Cn2c3c(c4ccccc42)CCNC3)cc1 [Compound 19, 9 benzyl-1,2,3,4-tetrahydro-β-carboline hydro-chloride] yielded an ED50 [2, 15] of 0.0447 µmol/kg and an ED50 [2, 16] of 22.4 µmol/kg.

With CCn1c2c(c3ccccc31)CCNC2 [Compound 20, 9-ethyl-1,2,3,4-tetrahydro-β-carboline hydrochloride] the ED50 [2, 15] was 0.0309 µmol/kg and the ED50 [2, 16] was 32.4 µmol/kg.

CCCCCn1c2c(c3cc(C)ccc31)CCNC2 [Compound 21, 6-Methyl-9-(n-pentyl)-1,2,3,4-tetrahydro-β-carboline hydrochloride] showed an ED50 [2, 15] of 0.0589 µmol/kg and an ED50 [2, 16] of 17 µmol/kg.

For CCCCCn1c2c(c3ccccc31)CCNC2 [Compound 23, 9-(n-pentyl)-1,2,3,4-tetrahydro-β-carboline hydrochloride], the ED50 [2, 15] was 0.055 µmol/kg and the ED50 [2, 16] was 18.2 µmol/kg.

CC(=O)N1CCc2c(n(Cc3ccccc3)c3ccccc23)C1 [Compound 27, 2 acetyl-9 benzyl-1,2,3,4-tetrahydro-β-carboline] showed an ED50 [2, 15] of 0.0339 µmol/kg and an ED50 [2, 16] of 29.5 µmol/kg.

In the case of CCOC(=O)c1ncc2[nH]c3ccc(OCc4ccccc4)cc3c2c1COC [ethyl 6-benzyloxy-4-meth-oxymethyl-β-carboline-3-carboxylate], the “effect on feeding (hyperphagic / anorectic)” value [13] is listed as “hyperphagic”.

For CCOC(=O)c1ncc2[nH]c3cccc(OCc4ccccc4)c3c2c1COC [ethyl-5-benzyloxy-4-methoxymethyl β-carboline-3-carboxylate], the “effect on feeding (hyperphagic / anorectic)” value [13] is listed as “hyperphagic”.

In the case of CCNC(C)Cc1cccc(C(F)(F)F)c1 (stereo not shown) [fenfluramine], the clinical efficacy [14] is given as “inadequate clinical efficacy” and the “patient complaints (side effects)” value [14] is given as “drowsiness and headache”.

In the case of CNC(=O)c1cc2c(cn1)[nH]c1ccccc12 [β-carboline-3-carboxylic acid methyl amide], the “food consumption by partially sated rats” value ([13]; 10.0 mg/Kg, intraperitoneal) is given as 30 % of control and the “effect on feeding (hyperphagic / anorectic)” value [13] is given as “anorectic”.

For “ethyl -isopropoxy-4-methyl-β-carboline-3-carboxylate”, the “effect on feeding (hyperphagic / anorectic)” value [13] is given as “hyperphagic”.
